We go through 21 compounds from US12077503B2, “Substituted cyclic amides and their use as herbicides” (FMC CORPORATION, priority 2015, dated 2024).

Structures are written as SMILES. Like-named read-outs stand apart in the source and are kept apart here.

Holding throughout (format): in vivo
The subject of experiment [1] is pigweed (Amaranthus retroflexus). The experiment in a line: Test A postemergence. The conditions noted are these: Amaranthus retroflexus, post-emergence, 240 h; for pest or weed control at 125 g/ha: 125 g ai/ha; for pest or weed control at 500 g/ha: 500 g ai/ha. The method in brief:
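Visual injury, scored on a 0–100 scale relative to untreated controls, was recorded about 10 d after application. Treatments were a preemergence soil spray over planted seeds or a postemergence spray on plants at the one- to two-leaf stage, 2 to 10 cm tall, all in loam soil–sand blend in the greenhouse.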

Experiment [2] deals with rice (Oryra sativa). The experiment in a line: Test B flooded paddy test. Conditions: Oryza sativa, 250 g ai/ha, Flood, read-out: Rice plant response rating. An outline of the steps:
(§1)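 Response scored visually against untreated controls, 0 = no effect and 100 = complete control, 13–15 d after treatment in the greenhouse. Compounds added to paddy water held 3 cm above soil surface. Treatment given at 2-leaf stage.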

Experiment [3] concerns barnyardgrass (Echinochloa crus-galli). Briefly: Test B flooded paddy test. The conditions noted are these: Echinochloa crus-galli, 250 g ai/ha, Flood, read-out: Barnyardgrass plant response rating. An outline of the steps: as §1
In experiment [4] the test system is ducksalad (Heteranthera limosa). Briefly: Test B flooded paddy test. Conditions: Heteranthera limosa, 250 g ai/ha, Flood, read-out: Ducksalad plant response rating. An outline of the steps: as §1
For experiment [5], the system named is sedge, umbrella (small-flower umbrella sedge, Cyperus difformis). Briefly: Test B flooded paddy test. Conditions: Cyperus difformis, 250 g ai/ha, Flood, read-out: Sedge, Umbrella plant response rating. An outline of the steps: as §1
The mark [6] stands for this setting: postemergence, visual injury on 0 to 100 scale (0 no effect, 100 complete control), approx. 10 d, read-out: Pigweed plant response rating.
Setting [7] is: postemergence, 0 to 100 scale, 0 is no effect, 100 is complete control, read-out: Pigweed plant response rating.
[8] abbreviates: 0 to 100 scale where 0 is no effect and 100 is complete control.
Where [9] appears, read: postemergence, visual injury rating after approximately 10 d, read-out: Pigweed plant response rating (0 to 100 scale, 0 no effect, 100 complete control).
Setting [10] is: scale of 0 to 100 where 0 is no effect and 100 is complete control.
The mark [11] stands for this setting: Postemergence, visual injury after approximately 10 d, 0 to 100 scale where 0 is no effect and 100 is complete control, read-out: Plant response rating, Pigweed.
The mark [12] stands for this setting: postemergence, visual injury, 0 to 100 scale (0 no effect, 100 complete control), approx. 10 d, read-out: Plant response rating, Pigweed.

In the case of `CN1C[C@H](c2cc(F)cc(F)c2)[C@@H](C(=O)Nc2ccncc2F)C1=O` [Compound 1095], the pest or weed control at 125 g/ha in experiment [1] (setting [6]) amounted to 0%. Besides, the pest or weed control at 500 g/ha in experiment [1] (setting [7]) amounted to 0%. In addition, the pest or weed control at 250 g/ha was 0% in experiment [2] (setting [8]), 0% in experiment [3] (setting [8]), 50% in experiment [4] (setting [8]) and 0% in experiment [5] (setting [8]).

For `CN1C[C@H](c2cc(F)cc(F)c2)[C@@H](C(=O)Nc2ccc(C(F)(F)F)cn2)C1=O` [Compound 869], in experiment [1] (setting [9]), the pest or weed control at 125 g/ha was 0%. Also, the pest or weed control at 250 g/ha in experiment [2] (setting [10]) turned out to be 0%; in experiment [3] (setting [10]) it was 0%; in experiment [4] (setting [10]) it was 60%; in experiment [5] (setting [10]), 0%.

As to `Cc1c(F)ccc([C@H]2CNC(=O)[C@@H]2C(=O)Nc2ccccc2S(C)(=O)=O)c1F` [Compound 832], the pest or weed control at 125 g/ha in experiment [1] (setting [9]) stood at 0%. The pest or weed control at 250 g/ha is 15% in experiment [2] (setting [10]), 0% in experiment [3] (setting [10]), 100% in experiment [4] (setting [10]) and 0% in experiment [5] (setting [10]).

For `Cc1cc([C@H]2CN(C)C(=O)[C@@H]2C(=O)Nc2ccc(F)cc2F)ccc1Br` [Compound 1100], in experiment [1] (setting [6]), the pest or weed control at 125 g/ha worked out at 0%. In addition, in experiment [1] (setting [7]), the pest or weed control at 500 g/ha was 0%. Besides, the pest or weed control at 250 g/ha was 0% in experiment [2] (setting [8]), 0% in experiment [3] (setting [8]), 75% in experiment [4] (setting [8]) and 0% in experiment [5] (setting [8]).

For `COc1cc([C@H]2CN(C)C(=O)[C@@H]2C(=O)Nc2ccccc2F)cc(C(F)(F)F)c1` [Compound 855], in experiment [1] (setting [9]), the pest or weed control at 125 g/ha is 20%. Besides, the pest or weed control at 250 g/ha in experiment [2] (setting [10]) turned out to be 0%; in experiment [3] (setting [10]) it was 70%; in experiment [4] (setting [10]), 75%; in experiment [5] (setting [10]), 0%.

In the case of `O=C1NC[C@H](c2ccc3c(c2)CCC3)[C@H]1C(=O)Nc1ccccc1F` [Compound 1045], the pest or weed control at 125 g/ha in experiment [1] (setting [6]) was 0%. The pest or weed control at 250 g/ha came to 0% in experiment [2] (setting [8]), 75% in experiment [3] (setting [8]), 100% in experiment [4] (setting [8]) and 0% in experiment [5] (setting [8]).

On to `CC(C)Oc1ccc([C@H]2CN(C)C(=O)[C@@H]2C(=O)Nc2ccc(F)cc2F)cc1` [Compound 954], for which the pest or weed control at 125 g/ha in experiment [1] (setting [11]) was 0%. Besides, the pest or weed control at 250 g/ha was 0% in experiment [2] (setting [10]), 0% in experiment [3] (setting [10]), 35% in experiment [4] (setting [10]) and 0% in experiment [5] (setting [10]).

Take `CN1CC[C@H](c2ccc(OC(F)(F)F)cc2)[C@@H](C(=O)Nc2cccc(F)c2F)C1=O` [Compound 999]: in experiment [1] (setting [11]), the pest or weed control at 125 g/ha stood at 0%. For the same compound, the pest or weed control at 250 g/ha in experiment [2] (setting [8]) was found to be 0%; in experiment [3] (setting [8]) it was 0%; in experiment [4] (setting [8]), 85%; in experiment [5] (setting [8]), 0%.

For `COc1ccc([C@H]2CN(C)C(=O)[C@@H]2C(=O)Nc2cccc(F)c2F)cc1F` [Compound 1021], in experiment [1] (setting [11]), the pest or weed control at 125 g/ha came out at 0%. For the same compound, the pest or weed control at 500 g/ha in experiment [1] (setting [12]) worked out at 50%. The pest or weed control at 250 g/ha in experiment [2] (setting [8]) stood at 15%; in experiment [3] (setting [8]), 80%; in experiment [4] (setting [8]), 98%; in experiment [5] (setting [8]), 0%.

On to `Cc1c(F)ccc([C@H]2CNC(=O)[C@@H]2C(=O)Nc2ccc(F)c(F)c2F)c1F` [Compound 830], for which the pest or weed control at 125 g/ha in experiment [1] (setting [9]) amounted to 0%. Besides, the pest or weed control at 250 g/ha in experiment [2] (setting [10]) is 0%; in experiment [3] (setting [10]), 20%; in experiment [4] (setting [10]) it was 100%; in experiment [5] (setting [10]), 0%.

As to `Cc1cc([C@H]2CN(C)C(=O)[C@@H]2C(=O)Nc2cccc(F)c2F)cc(C)c1Br` [Compound 1024], the pest or weed control at 125 g/ha in experiment [1] (setting [11]) came out at 30%. Also, the pest or weed control at 500 g/ha in experiment [1] (setting [12]) was determined as 50%. The pest or weed control at 250 g/ha stood at 0% in experiment [2] (setting [8]), 40% in experiment [3] (setting [8]), 70% in experiment [4] (setting [8]) and 0% in experiment [5] (setting [8]).

Turning to `O=C1NC[C@H](c2cc(F)c(C(F)(F)F)c(F)c2)[C@H]1C(=O)Nc1cccc(F)c1F` [Compound 838], in experiment [1] (setting [9]), the pest or weed control at 125 g/ha stood at 80%. For the same compound, the pest or weed control at 250 g/ha in experiment [2] (setting [10]) is 0%; in experiment [3] (setting [10]), 40%; in experiment [4] (setting [10]), 100%; in experiment [5] (setting [10]), 0%.

Take `CC(C)COc1cccc([C@H]2CNC(=O)[C@@H]2C(=O)Nc2ccc(F)cc2F)c1` [Compound 966]: in experiment [1] (setting [11]), the pest or weed control at 125 g/ha is 0%. Besides, the pest or weed control at 250 g/ha came out at 0% in experiment [2] (setting [10]), 0% in experiment [3] (setting [10]), 60% in experiment [4] (setting [10]) and 0% in experiment [5] (setting [10]).

Regarding `Cc1ccc([C@H]2CNC(=S)[C@@H]2C(=O)Nc2ccccc2F)cc1` (racemic) [Compound 945], the pest or weed control at 125 g/ha in experiment [1] (setting [11]) was 0%. For the same compound, the pest or weed control at 250 g/ha came out at 0% in experiment [2] (setting [10]), 0% in experiment [3] (setting [10]), 85% in experiment [4] (setting [10]) and 0% in experiment [5] (setting [10]).

With `Cc1ccc([C@H]2CN(C)C(=O)[C@@H]2C(=O)Nc2ccccc2F)cc1C` [Compound 1038], the pest or weed control at 125 g/ha in experiment [1] (setting [6]) came to 0%. For the same compound, the pest or weed control at 250 g/ha is 0% in experiment [2] (setting [8]), 65% in experiment [3] (setting [8]), 100% in experiment [4] (setting [8]) and 0% in experiment [5] (setting [8]).

For `Cc1ccc([C@H]2CN(C)C(=O)[C@]2(O)C(=O)Nc2cccc(F)c2F)cc1` (racemic) [Compound 1059], the pest or weed control at 125 g/ha in experiment [1] (setting [6]) was 0%. Further, in experiment [1] (setting [7]), the pest or weed control at 500 g/ha was determined as 0%. Besides, the pest or weed control at 250 g/ha in experiment [2] (setting [8]), in experiment [3] (setting [8]), in experiment [4] (setting [8]) and in experiment [5] (setting [8]) was 0% throughout.

In the case of `Cc1ccc([C@H]2CNC(=S)[C@@H]2C(=O)Nc2cccc(F)c2F)cc1` (racemic) [Compound 946], the pest or weed control at 125 g/ha in experiment [1] (setting [11]) is 0%. Further, the pest or weed control at 250 g/ha in experiment [2] (setting [10]), in experiment [3] (setting [10]), in experiment [4] (setting [10]) and in experiment [5] (setting [10]) was 0% throughout.

Turning to `CN1C[C@H](c2cccc(OC(F)(F)C(F)F)c2)[C@@H](C(=O)Nc2ccccc2S(C)(=O)=O)C1=O` [Compound 864], the pest or weed control at 125 g/ha in experiment [1] (setting [9]) was found to be 20%. The pest or weed control at 250 g/ha stood at 40% in experiment [2] (setting [10]), 50% in experiment [3] (setting [10]), 90% in experiment [4] (setting [10]) and 50% in experiment [5] (setting [10]).

Take `CSc1ccccc1NC(=O)[C@H]1C(=O)N(C)C[C@@H]1c1cc(C)cc(F)c1` [Compound 851]: the pest or weed control at 125 g/ha in experiment [1] (setting [9]) was 0%. The pest or weed control at 250 g/ha came out at 0% in experiment [2] (setting [10]), 0% in experiment [3] (setting [10]), 90% in experiment [4] (setting [10]) and 0% in experiment [5] (setting [10]).

In the case of `Cc1c(F)ccc([C@H]2CN(C)C(=O)[C@@H]2C(=O)Nc2cccc(F)c2F)c1F` [Compound 834], the pest or weed control at 125 g/ha in experiment [1] (setting [9]) amounted to 20%. Also, the pest or weed control at 250 g/ha came out at 0% in experiment [2] (setting [10]), 60% in experiment [3] (setting [10]), 65% in experiment [4] (setting [10]) and 0% in experiment [5] (setting [10]).

Turning to `CSc1ccccc1NC(=O)[C@H]1C(=O)NC[C@@H]1c1cc(F)c(F)c(F)c1` [Compound 1124], in experiment [1] (setting [6]), the pest or weed control at 125 g/ha is 0%. In experiment [1] (setting [7]), the pest or weed control at 500 g/ha stood at 60%. Besides, the pest or weed control at 250 g/ha stood at 0% in experiment [2] (setting [8]), 0% in experiment [3] (setting [8]), 95% in experiment [4] (setting [8]) and 0% in experiment [5] (setting [8]).
